Source: US20150190456A1, “USE OF CASPASE 3 ACTIVITY AND ITS INHIBITORS” (THE REGENTS OF THE UNIVERSITY OF COLORADO, priority 2011, published 2015)

Tests used:
tumor cells = test: Growth in mice of a small number of tumor cells pre-treated with PGE2; format: in vivo; conditions: about 1000 tumor cells treated with PGE2 versus non-treated cells
Experimental: (§1) Growth of Fluc-labeled tumor cells in vivo was followed through non-invasive bioluminescence imaging using the IVIS200 instrument (Caliper Life Sciences, Hopkinton, Mass). Mice to be imaged were injected with 150 mg/kg of D-luciferin (obtained from Caliper Life Sciences) intraperitoneally in 200 μl of PBS and then anesthetized with continuous flow of isofluorane. Imaging of the mice was carried out 10 minutes later. The time between injection and imaging were kept constant among different batches of mice.
(§2) Different approaches were used to establish tumor growth than traditionally adopted by other studies. In most of the studies by the present inventors, a very small number of Fluc-labeled tumor cells (500-1000 cells each) was injected either alone or together with other unlabeled cells (either tumor cells or fibroblast cells) that are either irradiated or un-irradiated. Tumor growth from these cells was monitored through the quantification of bioluminescence signals emitted from labeled tumor cells using IVIS200 instrument following manufacturer's instructions. In some cases, 500-1000 Fluc labeled tumor cells were injected into (7-9 mm in diameter) tumors that have been established from unlabeled tumor cells.

4T1 cells = test: Growth of tumor cells injected intratumorally into established tumors in mice, 4T1; format: in vivo, mouse; conditions: indomethacin administration
Experimental: as §1
as §2, with “cells. […]” for “cells.”

HCT116 cells = test: Growth of tumor cells injected intratumorally into established tumors in mice, HCT116; format: in vivo, human; conditions: indomethacin administration
Experimental: as §1
as §2, with “cells. […]” for “cells.”

| SMILES | growth of treated tumor cells when injected into mice (tumor cells) | growth of intratumorally injected 4T1 cells (4T1 cells) | growth of intratumorally injected HCT116 cells (HCT116 cells) |
| --- | --- | --- | --- |
| CCCCC[C@H](O)/C=C/[C@H]1[C@H](O)CC(=O)[C@@H]1C/C=C\CCCC(=O)O [PGE2, prostaglandin E2] | grow at a faster pace than non-treated cells | – | – |
| COc1ccc2c(c1)c(CC(=O)O)c(C)n2C(=O)c1ccc(Cl)cc1 [indomethacin] | – | effectively suppressed growth | effectively suppressed growth |
